Measurements taken from the supplement of paper PMC10307832.

What was measured:
Assay in all cases: relative viability (nuclei count vs DMSO), 5 days (fraction); higher = more cells survive
[1] = compound: CN1CCC(CNc2ccc3ncc(-c4cccc(OC(F)(F)F)c4)n3n2)CC1 [SGI-1776] + Cc1cc(Nc2cc(N3CCN(C)CC3)nc(Sc3ccc(NC(=O)C4CC4)cc3)n2)n[nH]1 [Tozasertib] (partner 0.1 µM)
In short: (§1)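 Lung cancer cell lines in 1536-well plates were dosed by pin tool the day after seeding, either with one drug alone or with a fixed anchor-drug dose plus five library-drug doses (not always all listed) in √10 steps. After 5 days, cells were fixed and their nuclei stained in one step (final 0.05% Triton X-100, 1% formaldehyde, 1 ug/ml Hoechst), then counted on 4× images. Relative viability is the nuclei count in treated wells divided by that in vehicle wells. Values are medians of duplicate plates.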

[2] = compound: C1COCCN1C2=NC(=NC3=C2OC4=C3C=CC=N4)C5=CC(=CC=C5)NC(=O)C6=CN=C(C=C6)N + COc1cc2c(Oc3ccc(NC(=O)C4(C(=O)Nc5ccc(F)cc5)CC4)cc3F)ccnc2cc1OCCCN1CCOCC1 [Foretinib] (partner 0.25 µM)
In short: as §1

[3] = compound: C1COCCN1C2=NC(=NC3=C2OC4=C3C=CC=N4)C5=CC(=CC=C5)NC(=O)C6=CN=C(C=C6)N + CC(C)C[C@H](NC(=O)[C@H](Cc1ccccc1)NC(=O)c1cnccn1)B(O)O [Bortezomib] (partner 0.002 µM)
In short: as §1

[4] = compound: Nc1ccccc1NC(=O)c1ccc(CNC(=O)OCc2cccnc2)cc1 [Entinostat] + O=C(CCCCCCC(=O)Nc1ccccc1)NO [Vorinostat] (partner 1 µM)
In short: as §1

Row | Cell Line | relative viability ([1]; first compound 0.08 µM) | relative viability ([1]; first compound 0.8 µM) | relative viability ([1]; first compound 2.53 µM) | relative viability ([1]; first compound 8 µM) | relative viability ([2]; first compound 0.02 µM) | relative viability ([2]; first compound 0.06325 µM) | relative viability ([2]; first compound 0.2 µM) | relative viability ([2]; first compound 0.6325 µM) | relative viability ([2]; first compound 2 µM) | relative viability ([3]; first compound 0.02 µM) | relative viability ([3]; first compound 0.06325 µM) | relative viability ([3]; first compound 0.2 µM) | relative viability ([3]; first compound 0.6325 µM) | relative viability ([3]; first compound 2 µM) | relative viability ([4]; first compound 0.02 µM) | relative viability ([4]; first compound 0.06325 µM) | relative viability ([4]; first compound 0.2 µM) | relative viability ([4]; first compound 0.6325 µM) | relative viability ([4]; first compound 2 µM)
1 | NCI-H2126 | 0.926 | 0.607 | 0.553 | 0.239 | 1.19 | 1.24 | 1.1 | 0.977 | 1.04 | 1.07 | 1.18 | 1.1 | 1.03 | 0.879 | 0.74 | 0.883 | 0.733 | 0.314 | 0.317
2 | NCI-H2228 | 0.253 | 0.145 | 0.117 | 0.148 | 0.911 | 0.855 | 1 | 0.836 | 0.446 | 1.25 | 1.1 | 0.975 | 0.84 | 0.488 | 0.675 | 0.683 | 0.761 | 0.406 | 0.32
3 | NCI-H2347 | 0.491 | 0.579 | 0.418 | 0.279 | 1.09 | 0.962 | 0.861 | 1.07 | 0.657 | 1.2 | 0.922 | 1.01 | 0.784 | 0.73 | 0.368 | 0.643 | 0.528 | 0.303 | 0.264
4 | NCI-H2405 | 0.711 | 0.484 | 0.353 | 0.314 | 0.99 | 1.04 | 1.07 | 1.02 | 0.981 | 0.995 | 1.02 | 0.973 | 0.947 | 0.902 | 1.23 | 1.02 | 0.979 | 0.693 | 0.42
5 | NCI-H3122 | 0.443 | 0.343 | 0.334 | 0.2 | 0.991 | 0.923 | 0.883 | 1.14 | 0.807 | 0.985 | 1.01 | 1.03 | 1.05 | 0.931 | 1.09 | 0.904 | 0.979 | 0.634 | 0.255
6 | PC-3 [JPC-3] | 0.911 | 0.9 | 0.863 | 0.544 | 1.14 | 1.05 | 0.991 | 1.07 | 0.772 | 0.799 | 0.748 | 0.844 | 0.845 | 0.634 | 1.15 | 0.911 | 0.597 | 0.525 | 0.36
7 | PC-14 | 0.618 | 0.522 | 0.452 | 0.0803 | 0.965 | 1.17 | 1.04 | 0.977 | 0.755 | 0.877 | 1.04 | 0.835 | 0.822 | 0.375 | 0.689 | 0.668 | 0.615 | 0.147 | 0.0636
8 | RERF-LC-KJ | 0.473 | 0.412 | 0.235 | 0.225 | 0.879 | 0.953 | 0.888 | 0.883 | 0.624 | 1.04 | 1.21 | 1.04 | 1.05 | 0.798 | 0.68 | 0.665 | 0.578 | 0.381 | 0.25
9 | SK-LU-1 | 0.397 | 0.265 | 0.212 | 0.207 | 0.826 | 0.916 | 0.83 | 0.725 | 0.557 | 1.31 | 0.998 | 1.02 | 1.14 | 0.63 | 0.775 | 0.801 | 0.747 | 0.579 | 0.582
10 | SW 1573 | 0.174 | 0.16 | 0.174 | 0.17 | 0.931 | 1.07 | 1.09 | 0.877 | 0.688 | 1.16 | 0.904 | 1.01 | 0.888 | 0.474 | 0.698 | 0.891 | 0.88 | 0.422 | 0.43
